The supplement of paper PMC11061612

Key:
Experiment in all cases: combination Emax (second highest fraction inhibited in the dose matrix, 72 h); higher = more inhibition; extreme values may be limits of the assay
[1] = tested on: SW872 (Other Solid Carcinomas)
Procedure, shortened: (§1)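 Cell lines in DMEM/F12 or RPMI with 10% FBS were plated in 1536-well plates, held 24 hours at 37°C, 5% CO2, then given two-drug dose matrices for 72 hours (DMSO typically 0.2%). Viability was read by CellTiter-Glo 2.0 luminescence and scaled as inhibition from 0 (vehicle wells) to 1 (blank wells). Combination Emax is the second-highest inhibition in the matrix; Bliss excess is observed combination effect minus expected EA + EB − EA·EB, EA and EB being single-agent effects.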

[2] = tested on: COLO-668 (Small Cell Lung Carcinoma)
Procedure, shortened: as §1

[3] = tested on: MOG-G-UVW (Low Grade Glioma)
Procedure, shortened: as §1

[4] = tested on: MDA-MB-453 (Breast Carcinoma)
Procedure, shortened: as §1

[5] = tested on: DU-145 (Prostate Carcinoma)
Procedure, shortened: as §1

[6] = tested on: NCI-H1993 (Lung Adenocarcinoma)
Procedure, shortened: as §1

[7] = tested on: SK-N-AS (Neuroblastoma)
Procedure, shortened: as §1

[8] = tested on: SKN (Other Solid Carcinomas)
Procedure, shortened: as §1

[9] = tested on: A4-Fuk (B-Lymphoblastic Leukemia)
Procedure, shortened: as §1

[10] = tested on: SK-LU-1 (Lung Adenocarcinoma)
Procedure, shortened: as §1

[11] = tested on: NCI-H522 (Lung Adenocarcinoma)
Procedure, shortened: as §1

[12] = tested on: NCI-H2122 (Lung Adenocarcinoma)
Procedure, shortened: as §1

[13] = tested on: CADO-ES1 (Ewing's Sarcoma)
Procedure, shortened: as §1

[14] = tested on: Hey (Ovarian Carcinoma)
Procedure, shortened: as §1

[15] = tested on: HCC1937 (Breast Carcinoma)
Procedure, shortened: as §1

[16] = tested on: ALL-SIL (T-Lymphoblastic Leukemia)
Procedure, shortened: as §1

[17] = tested on: HCC2998 (Colorectal Carcinoma)
Procedure, shortened: as §1

[18] = tested on: OACM5-1 (Esophageal Adenocarcinoma)
Procedure, shortened: as §1

[19] = tested on: LC-1-sq (Squamous Cell Lung Carcinoma)
Procedure, shortened: as §1

[20] = tested on: NCI-H1092 (Small Cell Lung Carcinoma)
Procedure, shortened: as §1

Compound | combination Emax [1] | combination Emax [2] | combination Emax [3] | combination Emax [4] | combination Emax [5] | combination Emax [6] | combination Emax [7] | combination Emax [8] | combination Emax [9] | combination Emax [10] | combination Emax [11] | combination Emax [12] | combination Emax [13] | combination Emax [14] | combination Emax [15] | combination Emax [16] | combination Emax [17] | combination Emax [18] | combination Emax [19] | combination Emax [20]
O=C(c1cc(Cc2n[nH]c(=O)c3ccccc23)ccc1F)N1CCN(C(=O)C2CC2)CC1 [Olaparib] + Cc1c2c(nn1C)CSCc1cc(n(C)n1)CSc1cc(c3ccccc3c1)OCCCc1c(C(=O)O)n(C)c3c-2c(Cl)ccc13 [AZD5991] (first compound max 10 µM, 7x7, partner max 1 µM) | 0.157 | 0.0291 | 0.408 | 0.341 | 0.121 | 0.124 | 0.258 | 0.126 | 1 | 0.216 | 0.479 | – | – | – | – | – | – | – | – | –
O=C(c1cc(Cc2n[nH]c(=O)c3ccccc23)ccc1F)N1CCN(C(=O)C2CC2)CC1 [Olaparib] + CN(CC[C@H](CSC1=CC=CC=C1)NC2=C(C=C(C=C2)S(=O)(=O)NC(=O)C3=CC=C(C=C3)N4CCC(CC4)[C@H](C5=CC=CC=C5C6=CC=C(C=C6)Cl)O)S(=O)(=O)C(F)(F)F)CCO [AZD4320] (first compound max 10 µM, 7x7, partner max 1 µM) | 0.133 | 0.823 | 0.344 | 0.224 | 0.0992 | 0.595 | 0.112 | 0.174 | 0.0633 | 0.48 | 0.0607 | – | – | – | – | – | – | – | – | –
Cc1c2c(nn1C)CSCc1cc(n(C)n1)CSc1cc(c3ccccc3c1)OCCCc1c(C(=O)O)n(C)c3c-2c(Cl)ccc13 [AZD5991] + CS(=O)(=O)CCNCc1ccc(-c2ccc3ncnc(Nc4ccc(OCc5cccc(F)c5)c(Cl)c4)c3c2)o1 [Lapatinib] (first compound max 1 µM, 7x7, partner max 10 µM) | 0.32 | 0.285 | 0.311 | 0.527 | 0.198 | 0.433 | 0.395 | 0.223 | 1 | 0.229 | 0.626 | – | – | – | – | – | – | – | – | –
CC1(C)CCC(CN2CCN(c3ccc(C(=O)NS(=O)(=O)c4ccc(NCC5CCOCC5)c([N+](=O)[O-])c4)c(Oc4cnc5[nH]ccc5c4)c3)CC2)=C(c2ccc(Cl)cc2)C1 [Venetoclax] + CS(=O)(=O)CCNCc1ccc(-c2ccc3ncnc(Nc4ccc(OCc5cccc(F)c5)c(Cl)c4)c3c2)o1 [Lapatinib] (first compound max 1 µM, 7x7, partner max 10 µM) | 0.0911 | 0.282 | 0.213 | 0.419 | 0.127 | 0.262 | 0.118 | 0.196 | 0.832 | 0.183 | 0.153 | – | – | – | – | – | – | – | – | –
C[C@@H](Nc1cc(F)cc(F)c1)c1cc(C(=O)N(C)C)cc2c(=O)cc(N3CCOCC3)oc12 [AZD8186] + CC(=O)c1c(C)c2cnc(Nc3ccc(N4CCNCC4)cn3)nc2n(C2CCCC2)c1=O [Palbociclib] (first compound max 10 µM, 7x7, partner max 10 µM) | 0.359 | 0.378 | 0.718 | 0.578 | 0.417 | 0.578 | 0.281 | 0.665 | 0.706 | 0.434 | 0.147 | – | – | – | – | – | – | – | – | –
C[C@@H]1COCCN1c1cc(C2([S@](C)(=N)=O)CC2)nc(-c2ccnc3[nH]ccc23)n1 [AZD6738] + Nc1ccn([C@@H]2O[C@H](CO)[C@@H](O)C2(F)F)c(=O)n1 [Gemcitabine] (first compound max 10 µM, 7x7, partner max 0.3 µM) | 0.907 | 0.854 | 0.967 | 0.678 | 0.583 | 0.939 | 0.801 | 0.71 | 0.962 | 0.415 | 0.912 | – | – | – | – | – | – | – | – | –
C[C@@H](Nc1cc(F)cc(F)c1)c1cc(C(=O)N(C)C)cc2c(=O)cc(N3CCOCC3)oc12 [AZD8186] + C1CN(CCC1(C(=O)N[C@@H](CCO)C2=CC=C(C=C2)Cl)N)C3=NC=NC4=C3C=CN4 [AZD5363] (first compound max 10 µM, 7x7, partner max 10 µM) | 0.427 | 0.327 | 0.621 | 0.573 | 0.189 | 0.636 | 0.135 | 0.557 | 0.76 | 0.303 | 0.0756 | – | – | – | – | – | – | – | – | –
CC1(C)CCC(CN2CCN(c3ccc(C(=O)NS(=O)(=O)c4ccc(NCC5CCOCC5)c([N+](=O)[O-])c4)c(Oc4cnc5[nH]ccc5c4)c3)CC2)=C(c2ccc(Cl)cc2)C1 [Venetoclax] + COc1cc(Nc2ncc3c(n2)-c2ccc(Cl)cc2C(c2c(F)cccc2OC)=NC3)ccc1C(=O)O [Alisertib] (first compound max 1 µM, 7x7, partner max 10 µM) | 0.265 | 0.474 | 0.722 | 0.314 | 0.268 | 0.308 | 0.818 | 0.577 | 0.822 | – | 0.277 | 0.939 | 0.957 | 0.61 | 0.387 | 1 | 0.225 | 0.663 | 0.275 | 0.684
